{
  "source": "ChEMBL document CHEMBL1125778",
  "about": "“Development of a small RGD peptide fibrinogen receptor antagonist with potent antiaggregatory activity in vitro” (J Med Chem, 1991)",
  "key": {"[1]": {"biological_target": "Integrin alpha-IIb/beta-3 (Homo sapiens, UniProt P05106+P08514)", "sequence (P05106 27-788 limits assumed)": "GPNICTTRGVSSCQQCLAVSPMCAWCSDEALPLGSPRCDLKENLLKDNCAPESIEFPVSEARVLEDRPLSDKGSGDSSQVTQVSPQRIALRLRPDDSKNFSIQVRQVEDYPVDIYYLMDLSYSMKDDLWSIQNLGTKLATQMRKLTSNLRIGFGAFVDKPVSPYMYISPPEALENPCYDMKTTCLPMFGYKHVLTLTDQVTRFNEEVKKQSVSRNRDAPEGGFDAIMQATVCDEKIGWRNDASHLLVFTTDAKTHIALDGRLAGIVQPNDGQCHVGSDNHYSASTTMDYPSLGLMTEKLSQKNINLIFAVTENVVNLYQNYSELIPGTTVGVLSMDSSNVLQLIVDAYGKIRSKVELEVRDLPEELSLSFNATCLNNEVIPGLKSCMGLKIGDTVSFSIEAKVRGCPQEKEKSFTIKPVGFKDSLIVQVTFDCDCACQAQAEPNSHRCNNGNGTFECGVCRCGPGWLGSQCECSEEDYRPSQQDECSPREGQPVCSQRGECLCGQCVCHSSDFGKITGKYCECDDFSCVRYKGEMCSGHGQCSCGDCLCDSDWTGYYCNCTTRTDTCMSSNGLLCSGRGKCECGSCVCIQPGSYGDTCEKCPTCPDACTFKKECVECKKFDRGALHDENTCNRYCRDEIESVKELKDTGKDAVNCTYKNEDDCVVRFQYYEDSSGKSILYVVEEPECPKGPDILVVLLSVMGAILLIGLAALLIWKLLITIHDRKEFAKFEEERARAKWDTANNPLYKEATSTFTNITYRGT", "sequence (P08514 32-887 limits assumed)": "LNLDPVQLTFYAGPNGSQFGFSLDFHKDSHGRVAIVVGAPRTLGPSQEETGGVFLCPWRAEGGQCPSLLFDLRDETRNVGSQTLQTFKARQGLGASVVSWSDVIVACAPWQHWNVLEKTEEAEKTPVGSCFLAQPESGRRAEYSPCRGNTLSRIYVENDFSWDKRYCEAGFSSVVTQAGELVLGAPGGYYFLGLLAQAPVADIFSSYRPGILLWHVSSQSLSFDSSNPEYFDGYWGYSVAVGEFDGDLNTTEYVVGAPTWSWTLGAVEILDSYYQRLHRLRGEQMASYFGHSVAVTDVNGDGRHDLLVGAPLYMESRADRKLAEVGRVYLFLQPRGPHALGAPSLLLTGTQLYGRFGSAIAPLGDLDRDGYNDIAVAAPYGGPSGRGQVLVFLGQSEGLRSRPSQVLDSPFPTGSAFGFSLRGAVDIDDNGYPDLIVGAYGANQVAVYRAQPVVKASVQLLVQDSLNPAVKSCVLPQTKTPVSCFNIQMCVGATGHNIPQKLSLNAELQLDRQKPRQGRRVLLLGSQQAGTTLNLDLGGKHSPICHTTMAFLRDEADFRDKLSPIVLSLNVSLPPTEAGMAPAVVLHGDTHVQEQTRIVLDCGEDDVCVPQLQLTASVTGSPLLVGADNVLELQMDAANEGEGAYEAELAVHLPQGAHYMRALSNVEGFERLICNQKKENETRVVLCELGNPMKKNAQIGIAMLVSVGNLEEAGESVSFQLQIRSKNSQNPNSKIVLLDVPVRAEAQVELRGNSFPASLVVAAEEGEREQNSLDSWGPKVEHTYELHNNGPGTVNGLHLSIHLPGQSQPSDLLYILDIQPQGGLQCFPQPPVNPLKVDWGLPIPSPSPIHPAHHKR", "sequence (P08514 891-1039 limits assumed)": "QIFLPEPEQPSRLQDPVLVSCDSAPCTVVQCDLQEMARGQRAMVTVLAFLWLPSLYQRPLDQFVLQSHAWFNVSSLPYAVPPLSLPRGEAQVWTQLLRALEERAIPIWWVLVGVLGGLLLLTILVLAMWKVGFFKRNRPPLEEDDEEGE", "test": "Inhibition of 125[I] Fibrinogen binding to isolated purified human fibrinogen receptor", "format": "protein-complex assay"}, "[2]": {"system": "Integrin alpha-IIb/beta-3 (Canis familiaris)", "test": "Inhibition of canine platelet-rich plasma induced by ADP", "parameters": "concentration or dose not given beside the values", "details": "Canis lupus familiaris, concentration not given here"}},
  "note": "Where a SMILES comes first, the peptide text is derived from it. Bridges are numbered along the chain shown (N, C = ends). [ ]: non-standard residue; d: D form. NMeR = CN[C@@H](CCCNC(=N)N)C(=O)O; Pen = CC(C)(S)[C@H](N)C(=O)O",
  "data": [
    {"compound": "CC(=O)N[C@H]1CSSC(C)(C)[C@@H](C(N)=O)NC(=O)[C@H](CC(=O)O)NC(=O)CNC(=O)[C@H](CCCN=C(N)N)N(C)C1=O", "note": "(Ac-C[NMeR]GD[Pen]-NH2; disulfide 1-5)", "values": [
      {"measurement": "Ki", "setting": "[1]", "value": 58, "unit": "nM"}
    ]},
    {"compound": "CC(=O)N[C@@H]1CSSC(C)(C)[C@H](C(N)=O)NC(=O)[C@H](CC(=O)O)NC(=O)CNC(=O)[C@@H](CCCNC(=N)N)NC1=O", "values": [
      {"measurement": "Ki", "setting": "[1]", "value": 720, "unit": "nM"}
    ]},
    {"compound": "Ac-HHLGGAKQAGDV-OH", "values": [
      {"measurement": "Ki", "setting": "[1]", "value": 14500, "unit": "nM"}
    ]},
    {"compound": "CC(=O)N[C@@H](Cc1c[nH]cn1)C(=O)N[C@@H](Cc1c[nH]cn1)C(=O)N[C@@H](CC(C)C)C(=O)NCC(=O)NCC(=O)N[C@@H](C)C(=O)N[C@@H](CCCCN)C(=O)N[C@H]1CSSC(C)(C)[C@H](C(N)=O)NC(=O)[C@H](CC(=O)O)NC(=O)CNC(=O)[C@H](CCCN=C(N)N)NC1=O", "values": [
      {"measurement": "inhibition", "setting": "[2]", "value": 100, "unit": "%"}
    ]},
    {"compound": "CC(=O)N[C@@H]1CSSC(C)(C)[C@H](C(N)=O)NC(=O)[C@@H](CC(=O)O)NC(=O)CN(C)C(=O)[C@@H](CCCN=C(N)N)NC1=O", "values": [
      {"measurement": "inhibition", "setting": "[2]", "value": 57, "unit": "%"}
    ]},
    {"compound": "CC(=O)N[C@@H]1CSSC[C@H](C(N)=O)NC(=O)[C@@H](CC(=O)O)NC(=O)CNC(=O)[C@@H](CCCN=C(N)N)NC1=O", "values": [
      {"measurement": "inhibition", "setting": "[2]", "value": 55, "unit": "%"}
    ]},
    {"compound": "CC(=O)N[C@@H]1CSSC(C)(C)[C@H](C(N)=O)NC(=O)[C@H](CC(=O)O)NC(=O)CNC(=O)[C@H](CCCN=C(N)N)NC(=O)CNC1=O", "values": [
      {"measurement": "inhibition", "setting": "[2]", "value": 100, "unit": "%"}
    ]},
    {"compound": "CC(=O)N[C@@H]1CSSC[C@@H](C(N)=O)NC(=O)[C@H](CC(=O)O)NC(=O)CNC(=O)[C@H](CCCN=C(N)N)NC(=O)CNC1=O", "values": [
      {"measurement": "inhibition", "setting": "[2]", "value": 100, "unit": "%"}
    ]},
    {"compound": "CC(=O)N[C@H]1C(=O)N[C@@H](CCCN=C(N)N)C(=O)NCC(=O)N[C@@H](CC(=O)O)C(=O)N[C@H](C(N)=O)CSSC1(C)C", "values": [
      {"measurement": "inhibition", "setting": "[2]", "value": 100, "unit": "%"}
    ]},
    {"compound": "CC(=O)N[C@@H](CCCN=C(N)N)C(=O)NCC(=O)N[C@@H](CC(=O)O)C(=O)N[C@@H](Cc1ccc(O)cc1)C(N)=O", "note": "(Ac-RGDY-NH2)", "values": [
      {"measurement": "inhibition", "setting": "[2]", "value": 98, "unit": "%"}
    ]},
    {"compound": "CC(=O)N[C@H]1C(=O)N(C)[C@@H](CCCN=C(N)N)C(=O)NCC(=O)N[C@@H](CC(=O)O)C(=O)N[C@@H](C(N)=O)C(C)(C)SSC1(C)C", "values": [
      {"measurement": "inhibition", "setting": "[2]", "value": 100, "unit": "%"}
    ]},
    {"compound": "CC(=O)N[C@H]1CSSC[C@@H](C(N)=O)NC(=O)[C@H](CC(=O)O)NC(=O)CNC(=O)[C@H](CCCN=C(N)N)NC1=O", "values": [
      {"measurement": "Ki", "setting": "[1]", "value": 780, "unit": "nM"}
    ]},
    {"compound": "CC(=O)N[C@H]1CSSC[C@@H](C(N)=O)NC(=O)[C@H](CO)NC(=O)[C@H](CC(=O)O)NC(=O)CNC(=O)[C@H](CCCN=C(N)N)NC1=O", "note": "(Ac-CRGDSC-NH2; disulfide 1-6)", "values": [
      {"measurement": "Ki", "setting": "[1]", "value": 5300, "unit": "nM"}
    ]}
  ]
}
